In patent US5250517A (Hoffmann-La Roche Inc., priority 1987, dated 1993):
Where a SMILES comes first, the peptide text is derived from it. [ ]: non-standard residue; d: D form. The star is where a group is joined. X1 = C=C[C@@H](CC(O)[C@H](CC1CCCCC1)N*)C(C)C; Boc = CC(C)(C)OC(=O)*

molecular target: T1, human renin (Homo sapiens, UniProt P00797); test: In Vitro Test With Pure Human Renin; format: biochemical; conditions: human tetradecapeptide renin substrate (hTD), pH 7.4, 3 hours at 37° C. vs 4° C., angiotensin I by RIA
T1 sequence (P00797 67-406): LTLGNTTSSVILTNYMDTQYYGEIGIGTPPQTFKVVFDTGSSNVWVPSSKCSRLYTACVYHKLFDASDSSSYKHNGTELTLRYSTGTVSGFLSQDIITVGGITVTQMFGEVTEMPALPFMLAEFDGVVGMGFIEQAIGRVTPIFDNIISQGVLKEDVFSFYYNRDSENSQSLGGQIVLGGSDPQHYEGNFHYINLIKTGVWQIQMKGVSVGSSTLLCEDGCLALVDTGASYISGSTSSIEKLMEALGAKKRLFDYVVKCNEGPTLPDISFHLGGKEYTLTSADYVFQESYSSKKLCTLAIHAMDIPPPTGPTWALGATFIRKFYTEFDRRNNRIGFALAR
Experimental: In Vitro Test With Pure Human Renin
The test is carried out in Eppendorf test tubes. The incubation mixture consists of (1) 100 μl of human renin in buffer A (0.1M sodium phosphate solution, pH 7.4, containing 0.1% bovine serum albumin, 0.1% sodium azide and 1 mM ethylenediaminetetraacetic acid), sufficient for a renin activity of 2-3 ng of angiotensin I/ml/hr.; (2) 145 μl of buffer A; (3) 30 μl of 10 μM human tetradecapeptide renin substrate (hTD) in 10 mM hydrochloric acid; (4) 15 μl of dimethyl sulfoxide with or without inhibitor and (5) 10 μl of a 0.03 molar solution of hydroxyquinoline sulfate in water.
The samples are incubated for 3 hours at 37° C. or 4° C. in triplicate. 2×100 μl samples per experimental test tube are used in order to measure the production of angiotensin I via RIA (standard radioimmunoassay; clinical assay solid phase kit). […] The production of angiotensin I in determined by the difference between the experiment at 37° C. and that at 4° C.
The following controls are carried out:
(a) Incubation of hTD samples without renin and without inhibitor at 37° C. and 4° C. The difference between these two values gives the base value of angiotensin I production.
(b) Incubation of hTD samples with renin, but without inhibitor at 37° C. and 4° C. The difference between these values gives the maximal value of angiotensin I production.
In each sample, the base value of the angiotensin I production is subtracted from the angiotensin I production which is determined. The difference between the maximal value and the base value gives the value of the maximal substrate hydrolysis (=100%) by renin.
The IC50 values are determined from a linear regression curve from a logit-log plot.

Q: With `C=C[C@@H](CC(O)[C@H](CC1CCCCC1)NC(=O)[C@H](Cc1c[nH]cn1)NC(=O)[C@H](Cc1ccccc1)NC(=O)[C@@H]1CCCN1C(=O)[C@H]1CCCN1C(=O)OC(C)(C)C)C(C)C` (stereo partly drawn) [R, (2S,5S)-2-(Boc--D--Pro--Pro--Phe--His--NH)-1-cyclohexyl-5-isopropyl-6-hepten-3-ol] (Boc-[dP]PFH-X1) as the molecule, how does the IC50 read?
A: 1.7 nM

Q: For `CC[C@@H](C[C@H](O)[C@H](CC1CCCCC1)NC(=O)[C@H](Cc1c[nH]cn1)NC(=O)C(CC(=O)C1CCCC1)Cc1ccccc1)C(C)C` (mixture of isomers) [Q], which IC50 is on record?
A: 68 nM

Q: For `C=C[C@@H](C[C@H](O)[C@H](CC1CCCCC1)NC(=O)[C@H](Cc1c[nH]cn1)NC(=O)[C@@H](CC(=O)NC(C)(CO)CO)Cc1ccccc1)C(C)C` [K, (S)-N-[(1S,2S,4S)-1-(cyclohexylmethyl)-2-hydroxy-4-isopropyl-5-hexenyl]-α-[(R)-α-[[[2-hydroxy-1-(hydroxymethyl)-1-methylethyl]carbamoyl]methyl]hydrocinnamamido]imidazole-4-propionamide], which IC50 is on record?
A: 17 nM

Q: Which IC50 does the source give for `C=C[C@@H](C[C@H](O)[C@H](CC1CCCCC1)NC(=O)[C@H](Cc1c[nH]cn1)NC(=O)CC(C)C)C(C)C` [C] here?
A: 9 nM

Q: How did the IC50 turn out when `CC[C@@H](C[C@H](O)[C@H](CC1CCCCC1)NC(=O)[C@H](Cc1c[nH]cn1)NC(=O)C(CC(=O)N1CCOCC1)Cc1cccc2ccccc12)C(C)C` (some centres unmarked) [H] was run?
A: 4.1 nM

Q: Which IC50 does the source give for `CC[C@@H](C[C@H](O)[C@H](CC1CCCCC1)NC(=O)[C@H](Cc1c[nH]cn1)NC(=O)[C@@H](CC(=O)NC(C)(CO)CO)Cc1ccccc1)C(C)C` [G, (S)-N-[(1S,2S,4S)-1-(cyclohexylmethyl)-2-hydroxy-4-isopropylhexyl]-α-[[[[(R)-α-2-hydroxy-1-(hydroxymethyl)-1-methylethyl]carbamoyl]methyl]hydrocinnamamido]imidazole-4-propionamide] here?
A: 15 nM

Q: `C=C[C@@H](C[C@H](O)[C@H](CC1CCCCC1)NC(=O)[C@H](Cc1c[nH]cn1)NC(=O)[C@H](Cc1ccccc1)NC(=O)OC(C)(C)C)C(C)C` [D, t-butyl [(S)-α-[[(S)-1-[[(1S,2S,4S)-1-cyclohexylmethyl-2-hydroxy-4-isopropyl-5-hexenyl]carbamoyl]-2-imidazol-4-ylethyl]carbamoyl]phenethyl]carbamate] was tested. Which IC50 did it give?
A: 7.5 nM

Q: How did the IC50 turn out when `C=C[C@@H](C[C@H](O)[C@H](CC1CCCCC1)NC(=O)[C@H](Cc1c[nH]cn1)NC(=O)[C@H](Cc1ccccc1)NC(=O)[C@H]1CCCN1C(=O)OC(C)(C)C)C(C)C` [B, (2S,3S,5S)-2-(Boc--D--Pro--Phe--His--NH)-1-cyclohexyl-5-isopropyl-6-hepten-3-ol] was run?
A: 0.3 nM

Q: Which IC50 does the source give for `C=C[C@@H](C[C@H](O)[C@H](CC1CCCCC1)NC(=O)[C@H](Cc1c[nH]cn1)NC(=O)[C@@H](CC(=O)N(C)C)Cc1ccccc1)C(C)C` [O, (S)-N-[(1S,2S,4S)-1-(cyclohexylmethyl)-2-hydroxy-4-isopropyl-5-hexenyl]-α-[(R)-α-[(dimethylcarbamoyl)-methyl]hydrocinnamamido]imidazole-4-propionamide] here?
A: 12 nM

Q: Which IC50 does the source give for `CC[C@@H](C[C@H](O)[C@H](CC1CCCCC1)NC(=O)[C@H](Cc1c[nH]cn1)NC(=O)[C@@H](CC(=O)[C@@H]1CCCN1C(=O)OC(C)(C)C)Cc1ccccc1)C(C)C` [F, t-butyl (S)-2-[[(R)-α-[[(S)-1-[[(1S,2S,4S)-1-(cyclohexylmethyl)-2-hydroxy-4-isopropylhexyl]carbamoyl]-2-imidazol-4-ylethyl]carbamoyl]phenethyl]acetyl]-1-pyrrolidinecarboxylate] here?
A: 4 nM

Q: For `CC[C@@H](C[C@H](O)[C@H](CC1CCCCC1)NC(=O)[C@H](Cc1c[nH]cn1)NC(=O)[C@H](Cc1ccccc1)NC(=O)[C@H]1CCCN1C(=O)OC(C)(C)C)C(C)C` [A], which IC50 is on record?
A: 3.5 nM

Q: How did the IC50 turn out when `C=C[C@@H](C[C@H](O)[C@H](CC1CCCCC1)NC(=O)[C@H](Cc1c[nH]cn1)NC(=O)[C@@H](CC(N)=O)Cc1ccccc1)C(C)C` [N, (S)-α-[(R)-α-(carbamoylmethyl)hydrocinnamamido]-N-[(1S,2S,4S)-1-(cyclohexylmethyl)-2-hydroxy-4-isopropyl-5-hexenyl]imidazole-4-propionamide] was run?
A: 140 nM

Q: For `C=C[C@@H](C[C@H](O)[C@H](CC1CCCCC1)NC(=O)[C@H](Cc1c[nH]cn1)NC(=O)[C@@H](CC(=O)C(C)(C)C)Cc1ccccc1)C(C)C` [L], which IC50 is on record?
A: 7 nM

Q: With `C=C[C@@H](C[C@H](O)[C@H](CC1CCCCC1)NC(=O)[C@H](Cc1c[nH]cn1)NC(=O)[C@H](Cc1ccccc1)NC(=O)N1CCOCC1)C(C)C` [M] as the molecule, how does the IC50 read?
A: 21 nM

Q: With `C=C[C@@H](C[C@H](O)[C@H](CC1CCCCC1)NC(=O)[C@H](Cc1c[nH]cn1)NC(=O)C(CC(=O)C1CCCC1)Cc1ccccc1)C(C)C` (mixture of isomers) [P, (S)-N-[(1S,2S,4S)-1-(cyclohexylmethyl)-2-hydroxy-4-isopropyl-5-hexenyl]-α-[(RS)-α-[(cyclopentyl-carbonyl)methyl]hydrocinnamamido]imidazole-4-propionamide] as the molecule, how does the IC50 read?
A: 46 nM

Q: How did the IC50 turn out when `CC[C@@H](C[C@H](O)[C@H](CC1CCCCC1)NC(=O)[C@H](Cc1c[nH]cn1)NC(=O)[C@H](Cc1ccccc1)NC(=O)OC(C)(C)C)C(C)C` [E, t-butyl [(S)-α-[[(S)-1-[[(1S,2S,4S)-1-cyclohexylmethyl-2-hydroxy-4-isopropylhexyl]carbamoyl]-2-imidazol-4-ylethyl]carbamoyl]phenethyl]carbamate] was run?
A: 7.9 nM

Q: `C=C[C@@H](C[C@H](O)[C@H](CC1CCCCC1)NC(=O)[C@H](Cc1c[nH]cn1)NC(=O)C(CC(=O)NCCN(CC(=O)OC(C)(C)C)C(=O)OC(C)(C)C)Cc1ccccc1)C(C)C` (mixture of isomers) [Compound I, t-butyloxycarbonyl [2-[(R and S)-3-[[(S)-1-[[(1S,2S,4S)-1-(cyclohexylmethyl)-2-hydroxy-4-isopropyl-5-hexenyl]carbamoyl]-2-imidazol-4-ylethyl]-carbamoyl]-4-phenylbutyramido]ethyl]glycine t-butyl ester] was tested. Which IC50 did it give?
A: 46 nM
